Assay results: ChEMBL document CHEMBL2150984, “Synthesis of fluorescent ristocetin aglycon derivatives with remarkable antibacterial and antiviral activities” (Eur J Med Chem, 2012)
Values after ≈ are worked out from the molar mass of the structure shown.

Legend:
Bacillus subtilis = assay: Antibacterial activity against Bacillus subtilis ATCC 6633 by broth microdilution method; format: functional
[1] = tested on: Staphylococcus epidermidis; assay: Antibacterial activity against biofilm forming Staphylococcus epidermidis ATCC 35984 by broth microdilution method; format: functional
Staphylococcus aureus [2] = assay: Antibacterial activity against methicillin-resistant Staphylococcus aureus ATCC 33591 by broth microdilution method; format: functional
Staphylococcus aureus [3] = assay: Antibacterial activity against methicillin-sensitive Staphylococcus aureus ATCC 29213 by broth microdilution method; format: functional
Enterococcus faecalis [4] = assay: Antibacterial activity against Enterococcus faecalis ATCC 15376 expressing vanA gene by broth microdilution method; format: functional
Enterococcus faecalis [5] = assay: Antibacterial activity against Enterococcus faecalis ATCC 29212 by broth microdilution method; format: functional
[6] = tested on: Staphylococcus epidermidis; assay: Antibacterial activity against Staphylococcus epidermidis expressing mecA gene by broth microdilution method; format: functional
Enterococcus faecalis [7] = assay: Antibacterial activity against Enterococcus faecalis ATCC 51299 expressing vanB gene by broth microdilution method; format: functional
Influenza A virus = assay: Antiviral activity against Influenza A/PR/8/34 infected in MDCK cells assessed as inhibition of virus-induced cytopathic effect measured on day 3 post infection by MTS assay; format: functional, organism-based; conditions: A/Puerto Rico/8/1934(H1N1), 72 h
H3N2 subtype = assay: Antiviral activity against Influenza A/HK/7/87 infected in MDCK cells assessed as inhibition of virus-induced cytopathic effect measured on day 3 post infection by MTS assay; format: functional, organism-based; conditions: A/Hong Kong/7/1987(H3N2), 72 h
Influenza B virus = assay: Antiviral activity against Influenza B/HK/5/72 infected in MDCK cells assessed as inhibition of virus-induced cytopathic effect measured on day 3 post infection by MTS assay; format: functional, cell-based; conditions: B/Hong Kong/05/1972, MDCK, 72 h
[8] = Cytotoxicity against MDCK cells assessed as minimum concentration required to cause microscopically detectable alteration measured on day 3 post infection by MTS assay; format: cell-based, Canis lupus familiaris; conditions: dog

Compound | MIC (Bacillus subtilis) [µg/mL] | MIC [1] [µg/mL] | MIC (Staphylococcus aureus [2]) [µg/mL] | MIC (Staphylococcus aureus [3]) [µg/mL] | MIC (Enterococcus faecalis [4]) [µg/mL] | MIC (Enterococcus faecalis [5]) [µg/mL] | MIC [6] [µg/mL] | MIC (Enterococcus faecalis [7]) [µg/mL] | EC50 (Influenza A virus) [nM] | EC50 (H3N2 subtype) [nM] | EC50 (Influenza B virus) [µM] | MCC at 3 days [8] [µM]
COC(=O)[C@H]1NC(=O)[C@H]2NC(=O)[C@H](NC(=O)[C@@H]3NC(=O)[C@H]4NC(=O)[C@H](NC(=O)[C@H](n5cc6ccccc6c5S[C@@H]5O[C@H](COC(C)=O)[C@@H](OC(C)=O)[C@H](OC(C)=O)[C@H]5OC(C)=O)c5ccc(O)c(c5)Oc5cc4cc(O)c5C)[C@H](O)c4ccc(cc4)Oc4cc3cc(c4O)Oc3ccc(cc3)[C@H]2O)c2ccc(O)c(c2)-c2c(O)cc(O)cc21 | 8 (≈ 4.89 µM) | 1 (≈ 0.611 µM) | 1 (≈ 0.611 µM) | 2 (≈ 1.22 µM) | 8 (≈ 4.89 µM) | 2 (≈ 1.22 µM) | 4 (≈ 2.44 µM) | 8 (≈ 4.89 µM) | 160 | 72 | > 100 | ≥ 4
COC(=O)[C@H]1NC(=O)[C@H]2NC(=O)[C@H](NC(=O)[C@@H]3NC(=O)[C@H]4NC(=O)[C@H](NC(=O)[C@H](n5cc6ccccc6c5S[C@@H]5O[C@H](CO)[C@@H](O)[C@H](O)[C@H]5O)c5ccc(O)c(c5)Oc5cc4cc(O)c5C)[C@H](O)c4ccc(cc4)Oc4cc3cc(c4O)Oc3ccc(cc3)[C@H]2O)c2ccc(O)c(c2)-c2c(O)cc(O)cc21 | 2 (≈ 1.36 µM) | 4 (≈ 2.72 µM) | 1 (≈ 0.681 µM) | 1 (≈ 0.681 µM) | 1 (≈ 0.681 µM) | 1 (≈ 0.681 µM) | 1 (≈ 0.681 µM) | 2 (≈ 1.36 µM) | 270 | 2300 | > 100 | 20
COC(=O)[C@H]1NC(=O)[C@H]2NC(=O)[C@H](NC(=O)[C@@H]3NC(=O)[C@H]4NC(=O)[C@H](NC(=O)[C@H](n5cc6ccccc6c5S[C@@H]5O[C@H](COC(C)=O)[C@@H](OC(C)=O)[C@H](OC(C)=O)[C@H]5NC(C)=O)c5ccc(O)c(c5)Oc5cc4cc(O)c5C)[C@H](O)c4ccc(cc4)Oc4cc3cc(c4O)Oc3ccc(cc3)[C@H]2O)c2ccc(O)c(c2)-c2c(O)cc(O)cc21 | 8 (≈ 4.89 µM) | 4 (≈ 2.45 µM) | 4 (≈ 2.45 µM) | 4 (≈ 2.45 µM) | 4 (≈ 2.45 µM) | 4 (≈ 2.45 µM) | 4 (≈ 2.45 µM) | 4 (≈ 2.45 µM) | 1800 | 1800 | > 100 | 20
COC(=O)[C@H]1NC(=O)[C@H]2NC(=O)[C@H](NC(=O)[C@@H]3NC(=O)[C@H]4NC(=O)[C@H](NC(=O)[C@H](n5cc6ccccc6c5Sc5ccccc5)c5ccc(O)c(c5)Oc5cc4cc(O)c5C)[C@H](O)c4ccc(cc4)Oc4cc3cc(c4O)Oc3ccc(cc3)[C@H]2O)c2ccc(O)c(c2)-c2c(O)cc(O)cc21 | 2 (≈ 1.45 µM) | 0.5 (≈ 0.362 µM) | 1 (≈ 0.723 µM) | 1 (≈ 0.723 µM) | 4 (≈ 2.89 µM) | 2 (≈ 1.45 µM) | 1 (≈ 0.723 µM) | 1 (≈ 0.723 µM) | 670 | 680 | 1.4 | 6.4
COC(=O)[C@H]1NC(=O)[C@H]2NC(=O)[C@H](NC(=O)[C@@H]3NC(=O)[C@H]4NC(=O)[C@H](NC(=O)[C@H](n5cc6ccccc6c5Sc5nc6ccccc6s5)c5ccc(O)c(c5)Oc5cc4cc(O)c5C)[C@H](O)c4ccc(cc4)Oc4cc3cc(c4O)Oc3ccc(cc3)[C@H]2O)c2ccc(O)c(c2)-c2c(O)cc(O)cc21 | 2 (≈ 1.39 µM) | 2 (≈ 1.39 µM) | 0.5 (≈ 0.347 µM) | 1 (≈ 0.695 µM) | 1 (≈ 0.695 µM) | 0.5 (≈ 0.347 µM) | 1 (≈ 0.695 µM) | 2 (≈ 1.39 µM) | 1400 | 4000 | 8.9 | 20
COC(=O)[C@H]1NC(=O)[C@H]2NC(=O)[C@H](NC(=O)[C@@H]3NC(=O)[C@H]4NC(=O)[C@H](NC(=O)[C@H](n5cc6ccccc6c5Sc5ncccn5)c5ccc(O)c(c5)Oc5cc4cc(O)c5C)[C@H](O)c4ccc(cc4)Oc4cc3cc(c4O)Oc3ccc(cc3)[C@H]2O)c2ccc(O)c(c2)-c2c(O)cc(O)cc21 | 0.5 (≈ 0.361 µM) | 2 (≈ 1.44 µM) | 1 (≈ 0.722 µM) | 1 (≈ 0.722 µM) | 0.5 (≈ 0.361 µM) | 0.5 (≈ 0.361 µM) | 0.5 (≈ 0.361 µM) | 0.5 (≈ 0.361 µM) | 300 | 1800 | > 100 | 20
COC(=O)[C@H]1NC(=O)[C@H]2NC(=O)[C@H](NC(=O)[C@@H]3NC(=O)[C@H]4NC(=O)[C@H](NC(=O)[C@H](n5cc6cc7ccccc7cc6c5Sc5ccccc5)c5ccc(O)c(c5)Oc5cc4cc(O)c5C)[C@H](O)c4ccc(cc4)Oc4cc3cc(c4O)Oc3ccc(cc3)[C@H]2O)c2ccc(O)c(c2)-c2c(O)cc(O)cc21 | 0.5 (≈ 0.349 µM) | 1 (≈ 0.698 µM) | 0.5 (≈ 0.349 µM) | 0.5 (≈ 0.349 µM) | 0.5 (≈ 0.349 µM) | 0.5 (≈ 0.349 µM) | 1 (≈ 0.698 µM) | 0.5 (≈ 0.349 µM) | > 100000 | > 100000 | > 100 | 20
COC(=O)[C@H]1NC(=O)[C@H]2NC(=O)[C@H](NC(=O)[C@@H]3NC(=O)[C@H]4NC(=O)[C@H](NC(=O)[C@H](n5cc6cc7ccccc7cc6c5Sc5ncccn5)c5ccc(O)c(c5)Oc5cc4cc(O)c5C)[C@H](O)c4ccc(cc4)Oc4cc3cc(c4O)Oc3ccc(cc3)[C@H]2O)c2ccc(O)c(c2)-c2c(O)cc(O)cc21 | 2 (≈ 1.39 µM) | 4 (≈ 2.79 µM) | 2 (≈ 1.39 µM) | 2 (≈ 1.39 µM) | 2 (≈ 1.39 µM) | 2 (≈ 1.39 µM) | 2 (≈ 1.39 µM) | 2 (≈ 1.39 µM) | 80 | 360 | > 100 | ≥ 0.8
COC(=O)[C@H]1NC(=O)[C@H]2NC(=O)[C@H](NC(=O)[C@@H]3NC(=O)[C@H]4NC(=O)[C@H](NC(=O)[C@H](N)c5ccc(O)c(c5)Oc5cc4cc(O)c5C)[C@H](O)c4ccc(cc4)Oc4cc3cc(c4O)Oc3ccc(cc3)[C@H]2O)c2ccc(O)c(c2)-c2c(O)cc(O)cc21 [AGLYCORISTOCETIN] |  |  |  |  |  |  |  |  | 2300 | 6800 | > 100 | > 100
NC12CC3CC(CC(C3)C1)C2 [AMANTADINE] |  |  |  |  |  |  |  |  | 7600 | 2300 | > 500 | > 500
NC(=O)c1ncn([C@@H]2O[C@H](CO)[C@@H](O)[C@H]2O)n1 [RIBAVIRIN] |  |  |  |  |  |  |  |  | 6800 | 8900 |  | ≥ 20
Cc1c(O)cc2cc1Oc1cc(ccc1O)[C@@H](N)C(=O)N[C@H]1C(=O)N[C@@H]2C(=O)N[C@H]2C(=O)N[C@H]3C(=O)N[C@H](C(=O)N[C@@H](C(=O)O)c4cc(O)cc(O[C@H]5O[C@H](CO)[C@@H](O)[C@H](O)[C@@H]5O)c4-c4cc3ccc4O)[C@H](O[C@H]3C[C@@H](N)[C@@H](O)[C@H](C)O3)c3ccc(cc3)Oc3cc2cc(c3O[C@H]2O[C@@H](CO[C@H]3O[C@H](C)[C@@H](O)[C@H](O)[C@@H]3O)[C@H](O)[C@@H](O)[C@@H]2O[C@H]2O[C@H](CO)[C@@H](O)[C@H](O)[C@@H]2O[C@H]2O[C@H](CO)[C@@H](O)[C@@H]2O)Oc2ccc(cc2)[C@H]1O [RISTOCETIN] | 16 (≈ 7.79 µM) | 2 (≈ 0.974 µM) | 32 (≈ 15.6 µM) | 128 (≈ 62.3 µM) | 16 (≈ 7.79 µM) | 4 (≈ 1.95 µM) | 128 (≈ 62.3 µM) | 256 (≈ 125 µM) |  |  |  | 
CN[C@H](CC(C)C)C(=O)N[C@H]1C(=O)N[C@@H](CC(N)=O)C(=O)N[C@H]2C(=O)N[C@H]3C(=O)N[C@H](C(=O)N[C@H](C(=O)O)c4cc(O)cc(O)c4-c4cc3ccc4O)[C@H](O)c3ccc(c(Cl)c3)Oc3cc2cc(c3O[C@@H]2O[C@H](CO)[C@@H](O)[C@H](O)[C@H]2O[C@H]2C[C@](C)(N)[C@H](O)[C@H](C)O2)Oc2ccc(cc2Cl)[C@H]1O [VANCOMYCIN] | 0.5 (≈ 0.345 µM) |  |  |  | 256 (≈ 177 µM) | 1 (≈ 0.69 µM) |  | 128 (≈ 88.3 µM) |  |  |  | 
CC(=O)N[C@H]1[C@H]([C@H](O)[C@H](O)CO)OC(C(=O)O)=C[C@@H]1NC(=N)N [ZANAMIVIR] |  |  |  |  |  |  |  |  | 300 | 1800 | 34 | > 100
